Earlier results in patent US20100215763A1, “Method of using the body's alternative cellular energy pigments (ACE-pigments) in the therapy of diseases” (priority 2009, published 2010).

System: HSV and HZV skin lesions

Cc1cc2nc3ccc(N(C)C)cc3nc2cc1N.Cl [neutral red]
healing of treated HSV and HZV skin lesions (neutral red applied to active lesions followed by UV illumination): expedited healing | healing of distant HSV lesions (patients with lesions at more than one location, neutral red and UV limited to a single lesion): expedited healing in all lesions
